Assay results: patent publication US20190293657A1, “PEPTIDE, FLUORESCENT PROBE COMPRISING THE SAME, AND PREPARATION METHOD THEREOF” (Singulprobe Nanjing Biotechnology Co., Ltd, priority 2017, published 2019)

Test system: lysosome (U2OS cells)
Assay: Structural illumination microscopy (N-SIM) super-resolution imaging of lysosomes
Assay type: cell-based
Conditions: FIG. 8
Description: Super-resolution imaging by structural illumination microscopy: super-resolution microscope N-SIM (Nikon, Japan) was employed. The maximum excitation wavelength of Alexa Fluor 647 was 650 nm and the maximum emission wavelength was 665 nm; the maximum excitation wavelength of LysoTracker Red was 577 nm and the maximum emission wavelength of LysoTracker Red was 590 nm; the maximum excitation wavelength of Atto 565 was 563 nm and the maximum emission wavelength of Atto 565 was 592 nm; the maximum excitation wavelength of Atto 488 was 501 nm and the maximum emission wavelength was 523 nm. A sample was photographed using a 2D-SIM mode, one SIM result was calculated from 9 original images (three angles, three phases), and the exposure time of each original image was 30 ms. Considering quick movement ability of a lysosome in living cells, single-color imaging interval time was set as 1 s so as to continuously photograph cells at above 300 frames. After the capturing was completed, the average time interval among various SIM images was about 1.15 s. […]
Based on a time-lapsed SIM imaging, take the center of the lysosome as a reference, the coordinates of lysosomes were recorded using ImageJ software, and trace charts of 101 lysosomes in four U2OS cells on the confocal surface were drawn using MATLAB (FIGS. 6A-6H). […]

In the case of `CN(C)CCNC(=O)CCc1ccc2n1[B-](F)(F)[N+]1=C(c3ccc[nH]3)C=CC1=C2` [LysoTracker Red], the “background in structural illumination super-resolution imaging” value is reported as “uneven background of LysoTracker Red was very obvious”.
